The record followed here is publication PMC7352059 (Biotechnology Reports, 2020).

SMILES strings stand for the structures.

Experiment in all cases: dopachrome formation, absorbance […] nm, non-linear regression
Common to all, as to conditions: free enzyme; 0.05 M Na-phosphate pH 6.5; 1-30 mM L-DOPA

Experiment [1] has as its system tyrosinase from C. esculenta. In kind it is biochemical, Colocasia esculenta.
Experiment [2] has as its system tyrosinase from D. praehensilis. In kind it is biochemical, Dioscorea praehensilis.
Experiment [3] relates to tyrosinase from D. rotundata. In kind it is biochemical, Dioscorea cayenensis subsp. rotundata.
The next experiment relates to tyrosinase from D. alata. Format: biochemical, Dioscorea alata.

Take `N[C@@H](Cc1ccc(O)c(O)c1)C(=O)O` [L-DOPA, 3,4-dihydroxyphenyl-L-alanine]: the Km in experiment [1] turned out to be 23.7 ± 14 mM; in experiment [2] it was 9.6 ± 3.7 mM; in experiment [3], 6.8 ± 2.6 mM; in the experiment on tyrosinase from D. alata it was 20 ± 11 mM.
